# Measurements taken from patent US12383511B2, “Osteogenic agents and uses thereof” (GoldPorp Pharma Limited, priority 2022, dated 2025).
# Experiments:
# MC3T3-E1 osteoblasts [1] = assay: Alkaline phosphatase (ALP) activity assay in MC3T3-E1 osteoblasts; type: cell-based; conditions: for cellular alkaline phosphatase (ALP) enzyme activities: 0.5, […], 5 μM; for concentration at which increases in ALP activities were already evident / concentration of maximum increase in ALP activities: at 24 and 48 h after treatment
# Method: MC3T3-E1 (passage 4-10) was maintained in Minimal Essential Media (MEM) supplemented with 10% FBS, 1 mM Sodium Pyruvate and 1% 100 ug/ml penicillin-streptomycin (100 U/ml). All reagents are from GIBCO Life Technologies.
# MC3T3-E1 cells were seeded at 1×10^5 cells per well in 24-well plate. […] After treatment, cells were washed twice with PBS and lysed with buffer contains 50 mM Tris pH7.4 and 0.1% Triton X-100. After 3 freeze-thaw cycles, 40 ul of cell lysate was mixed with 50 ul of 2× Assay buffer (2-Amino-2methyl-1-propanol, pH 10.4 with 4 mM MgCl2) and 10 ul of 0.1M 4-Nitrophenyl phosphate. Incubated in 37° C. and recorded at OD410.
# MC3T3-E1 osteoblasts [2] = assay: Cell viability / cell number NBB assay; type: cell-based; conditions: for cell number (NBB assay): 0.625 to 10 μM; for cell viability (NBB assay): higher concentrations (25-100 μM)
# Method: MC3T3-E1 cells were seeded at 7×10^3 cells/well in 96-well plates for 2 days. […] After treatment, cells were fixed with 3% formalin and stained with NBB solution (0.05% NBB with 0.1 M sodium acetate and 9% acetic acid) at room temperature. Twenty four hours later, staining solution was removed and distilled water was added to remove free dye. Then, 100 ul of 50 mM […] was added to dissolve bound dye and recorded absorbance at 590 nm.
# [3] = tested on: MC3T3-E1 osteoblast cells; assay: Osteoblast mineralization assay (Alizarin Red staining); type: cell-based; conditions: for Alizarin Red staining (calcium deposition) in cell layers: […] or 5 μM in osteoblast mineralization medium, day 14, compared with control
# Method: MC3T3-E1 cells were seeded at 1×10^5 cells per well in 24-well plates. […] […] Cells were washed twice with PBS and fixed with 10% formalin for 1 hour. Fixed cell was washed twice with distilled water and stained with 2% Alizarin Red S solution (pH 4.1) in the dark for 1 hour. Stain solution was removed and washed 4 times with distilled water.
# MC3T3-E1 osteoblast = assay: mRNA expression of osteogenesis-related molecules by real-time PCR; type: cell-based; conditions: for AFT6 mRNA expression / ALP mRNA expression / ATF3 mRNA expression / Axin2 mRNA expression / BMP2 mRNA expression / BMP7 mRNA expression / BSP mRNA expression / COL1A1 mRNA expression / Fzd1 mRNA expression / Fzd2 mRNA expression / Fzd5 mRNA expression / LRP5 mRNA expression / OCN mRNA expression / OPN mRNA expression / OSN mRNA expression / OSX mRNA expression / Runx2 mRNA expression / VDR mRNA expression / Wnt3A mRNA expression / Wnt5A mRNA expression / Wnt7B mRNA expression / Wnt11 mRNA expression: BMP2 30 ng/ml, ASC 400 μM + β-GP 5 mM, F1 5 μM, F4 5 μM, relative to DMSO control, normalized to GAPDH; for levels of osteocalcin (OCN) and osteoportin (OPN) mRNA: treatment of cells with F1 or F4
# Method: MC3T3-E1 cells were seeded in 6-well plates at 1×10^5 cells per well for 2 days. […] Total RNA was isolated at Day 2 and Day 4 with Trizol® reagent, 1 ug of total RNA was subjected to reverse transcription/cDNA synthesis using Superscript III first-strand synthesis system (Life Technologies).
# Equal amount of cDNA generated from reverse transcription reactions were subjected to real-time PCR with SYBR® Green PCR Master Mix and primers for osteoblast differentiation markers. Primers used included: […]
# Osteoblast differentiation markers genes expression were analyzed by ABI prism 7900HT Sequence Detection System and the relative level of transcript expression was quantified by ΔΔCt method.
# p38 = assay: Western blot of phosphorylated p38 and total p38; type: cell-based; conditions: 5 μM, 15 min and 30 min, MC3T3-E1 osteoblasts
# Method: MC3T3-E1 were lysed with 20 mM Tris pH8.0, 137 mM NaCl, 2 mM EDTA, 1% Triton X-100 and 10% Glycerol with protease inhibitor cocktail (Roche, complete). Protein concentration was determined by Bradford Protein Assay (Bio-Rad) and equal amount of proteins (30 μg) was resolved by SDS-PAGE and transferred onto PVDF membrane. The membrane was blocked with 3% BSA in Tris-buffered saline containing 0.1% Tween 20 and incubated with primary antibody (1:1000) overnight at 4° C. then incubated with HRP-linked secondary antibody for 1 h. Chemiluminescence signals were detected using enhanced chemiluminescence reagents (GE Healthcare) on X-Ray films (Fujifilm).
# The levels of phosphorylated p38 and total p38 were determined by immunoblotting experiments.
# [4] = tested on: estrogen responsive gene elements (ERE); assay: pERE-Luc reporter gene assay in MC3T3-E1; type: cell-based; conditions: 0.5-10 μM, MC3T3-E1
# Method: MC3T3-E1 were seeded at 9.0×10^4 per well in 24-well plates. Twenty-four hours after cell seeding, cells were transiently transfected with 500 ng pERE-Luc (contains three repeats of estrogen-response element) by lipofectamine 2000 (Life Technologies) according to manufacturers' instruction (lipofectamine:DNA=3:1).
# MCF7 cells = assay: BrdU incorporation proliferation assay; type: cell-based
# Source text: The effect of F compounds on estrogen dependent cancer cells was investigated (FIG. 8). […] The fold increase of MCF7 proliferation was similar to that induced by estradiol treatment.
# MDA-MB-231 cells = assay: BrdU incorporation proliferation assay; type: cell-based; conditions: 5 μM
# Estrogen receptor beta = Estrogen receptor beta (Homo sapiens, UniProt Q92731); assay: biochemical
# Sequence of Estrogen receptor beta (Q92731 whole entry, species assumed): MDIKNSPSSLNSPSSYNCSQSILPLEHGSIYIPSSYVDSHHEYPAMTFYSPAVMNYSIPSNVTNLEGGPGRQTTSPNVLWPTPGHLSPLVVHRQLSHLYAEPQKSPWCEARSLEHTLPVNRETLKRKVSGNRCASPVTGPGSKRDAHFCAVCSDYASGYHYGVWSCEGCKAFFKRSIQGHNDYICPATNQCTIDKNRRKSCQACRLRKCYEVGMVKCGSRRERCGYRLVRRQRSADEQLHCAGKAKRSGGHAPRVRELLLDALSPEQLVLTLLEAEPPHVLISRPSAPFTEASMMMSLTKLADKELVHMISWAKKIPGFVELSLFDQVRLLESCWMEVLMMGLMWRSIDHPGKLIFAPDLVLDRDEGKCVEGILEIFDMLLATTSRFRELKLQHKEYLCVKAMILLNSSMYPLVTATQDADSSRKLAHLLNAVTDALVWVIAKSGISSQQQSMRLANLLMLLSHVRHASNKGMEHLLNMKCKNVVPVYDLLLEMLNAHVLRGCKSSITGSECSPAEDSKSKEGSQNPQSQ
smiles,measurement,setting,value
C=Cc1cc(O)c(C)c2c1-c1ccc(O)c(C)c1CC2 [F1],cellular alkaline phosphatase (ALP) enzyme activities,MC3T3-E1 osteoblasts [1],increased the cellular alkaline phosphatase (ALP) enzyme activities in a concentration-dependent manner
same,concentration at which increases in ALP activities were already evident,MC3T3-E1 osteoblasts [1],0.5 µM
same,concentration of maximum increase in ALP activities,MC3T3-E1 osteoblasts [1],5 µM
same,cell number (NBB assay),MC3T3-E1 osteoblasts [2],slightly increased the cell number
same,cell viability (NBB assay),MC3T3-E1 osteoblasts [2],significant loss of cell viability
same,calcium deposition at higher vs lower concentration,[3]; 5 μM compared with […],More calcium deposition
same,Alizarin Red staining (calcium deposition) in cell layers,[3],significantly enhanced
same,AFT6 mRNA expression,MC3T3-E1 osteoblast; D 2,1.5 fold
same,ALP mRNA expression,MC3T3-E1 osteoblast; D 2,1.8 fold
same,ATF3 mRNA expression,MC3T3-E1 osteoblast; D 2,0.8 fold
same,Axin2 mRNA expression,MC3T3-E1 osteoblast; D 2,0.9 fold
same,BMP2 mRNA expression,MC3T3-E1 osteoblast; D 2,1.2 fold
same,BMP7 mRNA expression,MC3T3-E1 osteoblast; D 2,1.6 fold
same,BSP mRNA expression,MC3T3-E1 osteoblast; D 2,2.1 fold
same,COL1A1 mRNA expression,MC3T3-E1 osteoblast; D 2,0.7 fold
same,Fzd1 mRNA expression,MC3T3-E1 osteoblast; D 2,3.0 fold
same,Fzd2 mRNA expression,MC3T3-E1 osteoblast; D 2,1.0 fold
same,Fzd5 mRNA expression,MC3T3-E1 osteoblast; D 2,0.8 fold
same,LRP5 mRNA expression,MC3T3-E1 osteoblast; D 2,0.8 fold
same,OCN mRNA expression,MC3T3-E1 osteoblast; D 2,29 fold
same,OPN mRNA expression,MC3T3-E1 osteoblast; D 2,1.4 fold
same,OSN mRNA expression,MC3T3-E1 osteoblast; D 2,0.7 fold
same,OSX mRNA expression,MC3T3-E1 osteoblast; D 2,0.6 fold
same,Runx2 mRNA expression,MC3T3-E1 osteoblast; D 2,1.1 fold
same,VDR mRNA expression,MC3T3-E1 osteoblast; D 2,0.9 fold
same,Wnt3A mRNA expression,MC3T3-E1 osteoblast; D 2,0.9 fold
same,Wnt5A mRNA expression,MC3T3-E1 osteoblast; D 2,0.8 fold
same,Wnt7B mRNA expression,MC3T3-E1 osteoblast; D 2,0.8 fold
same,Wnt11 mRNA expression,MC3T3-E1 osteoblast; D 2,1.1 fold
same,AFT6 mRNA expression,MC3T3-E1 osteoblast; D 4,1.0 fold
same,ALP mRNA expression,MC3T3-E1 osteoblast; D 4,2.9 fold
same,ATF3 mRNA expression,MC3T3-E1 osteoblast; D 4,1.0 fold
same,Axin2 mRNA expression,MC3T3-E1 osteoblast; D 4,1.0 fold
same,BMP2 mRNA expression,MC3T3-E1 osteoblast; D 4,0.7 fold
same,BMP7 mRNA expression,MC3T3-E1 osteoblast; D 4,1.1 fold
same,BSP mRNA expression,MC3T3-E1 osteoblast; D 4,1.3 fold
same,COL1A1 mRNA expression,MC3T3-E1 osteoblast; D 4,0.9 fold
same,Fzd1 mRNA expression,MC3T3-E1 osteoblast; D 4,2.6 fold
same,Fzd2 mRNA expression,MC3T3-E1 osteoblast; D 4,0.7 fold
same,Fzd5 mRNA expression,MC3T3-E1 osteoblast; D 4,0.6 fold
same,LRP5 mRNA expression,MC3T3-E1 osteoblast; D 4,0.6 fold
same,OCN mRNA expression,MC3T3-E1 osteoblast; D 4,11 fold
same,OPN mRNA expression,MC3T3-E1 osteoblast; D 4,1.8 fold
same,OSN mRNA expression,MC3T3-E1 osteoblast; D 4,1.6 fold
same,OSX mRNA expression,MC3T3-E1 osteoblast; D 4,0.5 fold
same,Runx2 mRNA expression,MC3T3-E1 osteoblast; D 4,1.2 fold
same,VDR mRNA expression,MC3T3-E1 osteoblast; D 4,0.5 fold
same,Wnt3A mRNA expression,MC3T3-E1 osteoblast; D 4,2.8 fold
same,Wnt5A mRNA expression,MC3T3-E1 osteoblast; D 4,0.6 fold
same,Wnt7B mRNA expression,MC3T3-E1 osteoblast; D 4,1.1 fold
same,Wnt11 mRNA expression,MC3T3-E1 osteoblast; D 4,0.6 fold
same,levels of osteocalcin (OCN) and osteoportin (OPN) mRNA,MC3T3-E1 osteoblast,markedly increased
"C=Cc1cc(O)cc2c1-c1ccc(O)c(C)c1CC2 [F4, effusol]",cellular alkaline phosphatase (ALP) enzyme activities,MC3T3-E1 osteoblasts [1],increased the cellular alkaline phosphatase (ALP) enzyme activities in a concentration-dependent manner
same,concentration at which increases in ALP activities were already evident,MC3T3-E1 osteoblasts [1],0.5 µM
same,concentration of maximum increase in ALP activities,MC3T3-E1 osteoblasts [1],5 µM
same,cell number (NBB assay),MC3T3-E1 osteoblasts [2],slightly increased the cell number
same,cell viability (NBB assay),MC3T3-E1 osteoblasts [2],significant loss of cell viability
same,Alizarin Red staining (calcium deposition) in cell layers,[3],significantly enhanced
same,mRNA of Wnt pathway members Wnt3A and frizzled 1,MC3T3-E1 osteoblast,increases
same,AFT6 mRNA expression,MC3T3-E1 osteoblast; D 2,1.5 fold
same,ALP mRNA expression,MC3T3-E1 osteoblast; D 2,2.1 fold
same,ATF3 mRNA expression,MC3T3-E1 osteoblast; D 2,0.7 fold
same,Axin2 mRNA expression,MC3T3-E1 osteoblast; D 2,1.1 fold
same,BMP2 mRNA expression,MC3T3-E1 osteoblast; D 2,1.0 fold
same,BMP7 mRNA expression,MC3T3-E1 osteoblast; D 2,1.0 fold
same,BSP mRNA expression,MC3T3-E1 osteoblast; D 2,1.6 fold
same,COL1A1 mRNA expression,MC3T3-E1 osteoblast; D 2,1.0 fold
same,Fzd1 mRNA expression,MC3T3-E1 osteoblast; D 2,3.3 fold
same,Fzd2 mRNA expression,MC3T3-E1 osteoblast; D 2,0.8 fold
same,Fzd5 mRNA expression,MC3T3-E1 osteoblast; D 2,0.7 fold
same,LRP5 mRNA expression,MC3T3-E1 osteoblast; D 2,0.9 fold
same,OCN mRNA expression,MC3T3-E1 osteoblast; D 2,17 fold
same,OPN mRNA expression,MC3T3-E1 osteoblast; D 2,1.5 fold
same,OSN mRNA expression,MC3T3-E1 osteoblast; D 2,0.9 fold
same,OSX mRNA expression,MC3T3-E1 osteoblast; D 2,0.6 fold
same,Runx2 mRNA expression,MC3T3-E1 osteoblast; D 2,1.3 fold
same,VDR mRNA expression,MC3T3-E1 osteoblast; D 2,2.1 fold
same,Wnt3A mRNA expression,MC3T3-E1 osteoblast; D 2,0.9 fold
same,Wnt5A mRNA expression,MC3T3-E1 osteoblast; D 2,1.0 fold
same,Wnt7B mRNA expression,MC3T3-E1 osteoblast; D 2,0.6 fold
same,Wnt11 mRNA expression,MC3T3-E1 osteoblast; D 2,0.8 fold
same,AFT6 mRNA expression,MC3T3-E1 osteoblast; D 4,2.1 fold
same,ALP mRNA expression,MC3T3-E1 osteoblast; D 4,4.6 fold
same,ATF3 mRNA expression,MC3T3-E1 osteoblast; D 4,0.9 fold
same,Axin2 mRNA expression,MC3T3-E1 osteoblast; D 4,1.1 fold
same,BMP2 mRNA expression,MC3T3-E1 osteoblast; D 4,0.9 fold
same,BMP7 mRNA expression,MC3T3-E1 osteoblast; D 4,1.3 fold
same,BSP mRNA expression,MC3T3-E1 osteoblast; D 4,1.2 fold
same,COL1A1 mRNA expression,MC3T3-E1 osteoblast; D 4,1.2 fold
same,Fzd1 mRNA expression,MC3T3-E1 osteoblast; D 4,5.8 fold
same,Fzd2 mRNA expression,MC3T3-E1 osteoblast; D 4,0.8 fold
same,Fzd5 mRNA expression,MC3T3-E1 osteoblast; D 4,0.8 fold
same,LRP5 mRNA expression,MC3T3-E1 osteoblast; D 4,1.0 fold
same,OCN mRNA expression,MC3T3-E1 osteoblast; D 4,9 fold
same,OPN mRNA expression,MC3T3-E1 osteoblast; D 4,2.7 fold
same,OSN mRNA expression,MC3T3-E1 osteoblast; D 4,2 fold
same,OSX mRNA expression,MC3T3-E1 osteoblast; D 4,0.6 fold
same,Runx2 mRNA expression,MC3T3-E1 osteoblast; D 4,1.7 fold
same,VDR mRNA expression,MC3T3-E1 osteoblast; D 4,1.6 fold
same,Wnt3A mRNA expression,MC3T3-E1 osteoblast; D 4,1.9 fold
same,Wnt5A mRNA expression,MC3T3-E1 osteoblast; D 4,0.8 fold
same,Wnt7B mRNA expression,MC3T3-E1 osteoblast; D 4,0.1 fold
same,Wnt11 mRNA expression,MC3T3-E1 osteoblast; D 4,0.4 fold
same,levels of osteocalcin (OCN) and osteoportin (OPN) mRNA,MC3T3-E1 osteoblast,markedly increased
same,levels of phosphorylated p38,p38,increased levels of phosphorylated p38
same,transcriptional activity driven by estrogen responsive gene elements (ERE),[4],stimulated the transcriptional activity driven by estrogen responsive gene elements (ERE) in a dose-dependent manner
same,MCF7 cell proliferation induced by estradiol,MCF7 cells; 5 μM,significantly suppress
same,MCF7 cell proliferation,MCF7 cells; dose of 5 μM or higher,inhibited the proliferation
same,MCF7 cell proliferation,MCF7 cells; low dose of 0.3 μM,induced MCF7 cell proliferation
same,cell proliferation induced by 17beta-estradiol in MDA-MB-231 cells (ER negative),MDA-MB-231 cells,had no effect
same,IC50,Estrogen receptor beta,5.6 nM
